The results in this text go back to ChEMBL document CHEMBL1697731, “Cheminformatics analysis of assertions mined from literature that describe drug-induced liver injury in different species” (Chem Res Toxicol, 2010).

In data set [1] the test system is Hepatotoxicity. In words: Literature-mined compound from Fourches et al multi-species drug-induced liver injury (DILI) dataset, effect in non-rodents.
Data set [2] deals with Hepatotoxicity. Briefly: Literature-mined compound from Fourches et al multi-species drug-induced liver injury (DILI) dataset, effect in rodents. Conditions: rodentia.
For data set [3], the system named is Hepatotoxicity. Briefly: Literature-mined compound from Fourches et al multi-species drug-induced liver injury (DILI) dataset, effect in humans. The settings on record: human.

In the case of `CNC(=C[N+](=O)[O-])NCCSCc1csc(CN(C)C)n1` [NIZATIDINE], the Hepatotoxicity entry with Hepatotoxicity [1] is “no drug-induced liver injury reported”; in the data set on Hepatotoxicity [2] it was “drug-induced liver injury reported”; in the data set on Hepatotoxicity [3] it was “drug-induced liver injury reported”.
As for `CC(Cc1ccc(O)c(O)c1)C(C)Cc1ccc(O)c(O)c1` (stereo unspecified) [NORDIHYDROGUAIARETIC ACID], the Hepatotoxicity entry with Hepatotoxicity [1] is “no drug-induced liver injury reported”; with Hepatotoxicity [2] it was “drug-induced liver injury reported”; in the data set on Hepatotoxicity [3], “drug-induced liver injury reported”.
As for `NC[C@H](O)c1ccc(O)c(O)c1` [NOREPINEPHRINE], the Hepatotoxicity entry in the data set on Hepatotoxicity [1], in the data set with Hepatotoxicity [2] and with Hepatotoxicity [3] was “drug-induced liver injury reported” throughout.
With `C#C[C@]1(OC(C)=O)CC[C@H]2[C@@H]3CCC4=CC(=O)CC[C@@H]4[C@H]3CC[C@@]21C` [NORETHINDRONE ACETATE], the values for the Hepatotoxicity entry with Hepatotoxicity [1], with Hepatotoxicity [2] and with Hepatotoxicity [3] were “drug-induced liver injury reported”, “drug-induced liver injury reported” and “no drug-induced liver injury reported”, respectively.
Consider `CCn1cc(C(=O)O)c(=O)c2cc(F)c(N3CCNCC3)cc21` [NORFLOXACIN], for which the results for the Hepatotoxicity entry in the data set with Hepatotoxicity [1] (Liver), with Hepatotoxicity [2] (Liver) and in the data set with Hepatotoxicity [3] (Liver) were “no drug-induced liver injury reported”, “drug-induced liver injury reported” and “drug-induced liver injury reported”, respectively.
For the compound `C#CC1(O)CC[C@H]2[C@@H]3CCC4=CC(=O)CC[C@@H]4[C@H]3CC[C@@]21CC` (stereo partly specified) [NORGESTREL], the results for the Hepatotoxicity result in the data set with Hepatotoxicity [1] (Liver), with Hepatotoxicity [2] (Liver) and in the data set with Hepatotoxicity [3] (Liver) were “no drug-induced liver injury reported”, “drug-induced liver injury reported” and “drug-induced liver injury reported”, respectively.
Regarding `CNCCC=C1c2ccccc2CCc2ccccc21` [NORTRIPTYLINE], the Hepatotoxicity entry in the data set with Hepatotoxicity [1] (Liver) is listed as “no drug-induced liver injury reported”; in the data set with Hepatotoxicity [2] (Liver), “no drug-induced liver injury reported”; with Hepatotoxicity [3] (Liver), “drug-induced liver injury reported”.
`COc1ccc2c(c1OC)C(=O)O[C@@H]2[C@H]1c2c(cc3c(c2OC)OCO3)CCN1C` [NOSCAPINE]: the results for the Hepatotoxicity result in the data set with Hepatotoxicity [1], in the data set with Hepatotoxicity [2] and in the data set on Hepatotoxicity [3] were “no drug-induced liver injury reported”, “drug-induced liver injury reported” and “no drug-induced liver injury reported”, respectively.
In the case of `CO[C@@H]1[C@@H](OC(N)=O)[C@@H](O)[C@H](Oc2ccc3c(O)c(NC(=O)c4ccc(O)c(CC=C(C)C)c4)c(=O)oc3c2C)OC1(C)C` [NOVOBIOCIN], the results for the Hepatotoxicity entry in the data set with Hepatotoxicity [1], in the data set on Hepatotoxicity [2] and in the data set on Hepatotoxicity [3] were “no drug-induced liver injury reported”, “drug-induced liver injury reported” and “drug-induced liver injury reported”, respectively.
Regarding `CO[C@@H]1[C@H](OC(=O)NC(=O)CCl)CC[C@]2(CO2)[C@H]1[C@@]1(C)O[C@@H]1CC=C(C)C` [O-CHLOROACETYLCARBAMOYLFUMAGILLOL], the Hepatotoxicity result in the data set on Hepatotoxicity [1] is listed as “drug-induced liver injury reported”; in the data set with Hepatotoxicity [2], “drug-induced liver injury reported”; in the data set on Hepatotoxicity [3], “no drug-induced liver injury reported”.
For the compound `Cc1cc2c(s1)Nc1ccccc1N=C2N1CCN(C)CC1` [OLANZAPINE], the Hepatotoxicity result in the data set with Hepatotoxicity [1] is “no drug-induced liver injury reported”; in the data set on Hepatotoxicity [2], “no drug-induced liver injury reported”; with Hepatotoxicity [3], “drug-induced liver injury reported”.
For `CCCCCCCC/C=C\CCCCCCCC(=O)O` [OLEIC ACID], the Hepatotoxicity result in the data set with Hepatotoxicity [1] is “no drug-induced liver injury reported”; with Hepatotoxicity [2], “drug-induced liver injury reported”; in the data set with Hepatotoxicity [3], “no drug-induced liver injury reported”.
For the compound `CCCc1nc(C(C)(C)O)c(C(=O)OCc2oc(=O)oc2C)n1Cc1ccc(-c2ccccc2-c2nnn[nH]2)cc1` [OLMESARTAN MEDOXOMIL], the results for the Hepatotoxicity entry with Hepatotoxicity [1], in the data set on Hepatotoxicity [2] and with Hepatotoxicity [3] were “no drug-induced liver injury reported”, “drug-induced liver injury reported” and “no drug-induced liver injury reported”, respectively.
In the case of `COC(=O)C[C@](O)(CCCC(C)(C)O)C(=O)O[C@@H]1C(OC)=C[C@]23CCCN2CCc2cc4c(cc2[C@H]13)OCO4` [OMACETAXINE MEPESUCCINATE], the Hepatotoxicity entry in the data set on Hepatotoxicity [1] is listed as “no drug-induced liver injury reported”; with Hepatotoxicity [2], “no drug-induced liver injury reported”; with Hepatotoxicity [3], “drug-induced liver injury reported”.
Consider `COc1ccc2[nH]c([S+]([O-])Cc3ncc(C)c(OC)c3C)nc2c1` (stereo unspecified) [OMEPRAZOLE], for which the Hepatotoxicity result with Hepatotoxicity [1] is “no drug-induced liver injury reported”; in the data set with Hepatotoxicity [2], “drug-induced liver injury reported”; in the data set with Hepatotoxicity [3], “drug-induced liver injury reported”.
In the case of `Cc1nccn1CC1CCc2c(c3ccccc3n2C)C1=O` (stereo unspecified) [ONDANSETRON], the Hepatotoxicity entry is “no drug-induced liver injury reported” in the data set with Hepatotoxicity [1], “no drug-induced liver injury reported” with Hepatotoxicity [2] and “drug-induced liver injury reported” in the data set on Hepatotoxicity [3].
Turning to `Cc1[nH]c(/C=C2\C(=O)Nc3ccccc32)c(C)c1CCC(=O)O` [ORANTINIB], the Hepatotoxicity entry is given as “no drug-induced liver injury reported” with Hepatotoxicity [1], “no drug-induced liver injury reported” with Hepatotoxicity [2] and “drug-induced liver injury reported” in the data set with Hepatotoxicity [3].
With `CCCCCCCCCCC[C@@H](C[C@@H]1OC(=O)[C@H]1CCCCCC)OC(=O)[C@H](CC(C)C)NC=O` [ORLISTAT], the Hepatotoxicity result with Hepatotoxicity [1] is listed as “no drug-induced liver injury reported”; in the data set with Hepatotoxicity [2], “no drug-induced liver injury reported”; in the data set with Hepatotoxicity [3], “drug-induced liver injury reported”.
`O=C(O)c1cc(=O)[nH]c(=O)[nH]1` [OROTIC ACID]: the Hepatotoxicity entry was “no drug-induced liver injury reported” in the data set with Hepatotoxicity [1], “drug-induced liver injury reported” in the data set with Hepatotoxicity [2] and “no drug-induced liver injury reported” in the data set with Hepatotoxicity [3].
Consider `Cc1ccccc1C(OCCN(C)C)c1ccccc1` (stereo unspecified) [ORPHENADRINE], for which the results for the Hepatotoxicity entry in the data set with Hepatotoxicity [1], in the data set on Hepatotoxicity [2] and in the data set on Hepatotoxicity [3] were “no drug-induced liver injury reported”, “drug-induced liver injury reported” and “no drug-induced liver injury reported”, respectively.
On to `CC(C)NCC1CCc2cc(CO)c([N+](=O)[O-])cc2N1` (stereo unspecified) [OXAMNIQUINE], for which the Hepatotoxicity result in the data set with Hepatotoxicity [1] is on record as “no drug-induced liver injury reported”; in the data set with Hepatotoxicity [2] it was “drug-induced liver injury reported”; in the data set on Hepatotoxicity [3], “no drug-induced liver injury reported”.
As to `C[C@]12COC(=O)C[C@@H]1CC[C@@H]1[C@@H]2CC[C@@]2(C)[C@H]1CC[C@]2(C)O` [OXANDROLONE], the Hepatotoxicity entry with Hepatotoxicity [1] is “no drug-induced liver injury reported”; with Hepatotoxicity [2], “drug-induced liver injury reported”; in the data set on Hepatotoxicity [3], “no drug-induced liver injury reported”.
Consider `O=C(O)CCc1nc(-c2ccccc2)c(-c2ccccc2)o1` [OXAPROZIN], for which the Hepatotoxicity entry in the data set on Hepatotoxicity [1] is listed as “no drug-induced liver injury reported”; with Hepatotoxicity [2], “no drug-induced liver injury reported”; in the data set on Hepatotoxicity [3], “drug-induced liver injury reported”.
For `NC(=O)N1c2ccccc2CC(=O)c2ccccc21` [OXCARBAZEPINE], the Hepatotoxicity entry is recorded as “no drug-induced liver injury reported” with Hepatotoxicity [1], “no drug-induced liver injury reported” with Hepatotoxicity [2] and “drug-induced liver injury reported” with Hepatotoxicity [3].
Consider `CNCC(O)c1ccc(O)cc1` (stereo unspecified) [OXEDRINE], for which the results for the Hepatotoxicity entry in the data set with Hepatotoxicity [1], in the data set on Hepatotoxicity [2] and in the data set on Hepatotoxicity [3] were “no drug-induced liver injury reported”, “drug-induced liver injury reported” and “no drug-induced liver injury reported”, respectively.
Regarding `CN(C(=O)CN(CCO)CC(=O)N(C)C(C)(C)Cc1ccccc1)C(C)(C)Cc1ccccc1` [OXETHAZAINE], the Hepatotoxicity result in the data set with Hepatotoxicity [1] is “no drug-induced liver injury reported”; in the data set with Hepatotoxicity [2] it was “drug-induced liver injury reported”; in the data set on Hepatotoxicity [3] it was “no drug-induced liver injury reported”.
Turning to `C=CCOc1ccccc1OCC(O)CNC(C)C` (stereo unspecified) [OXPRENOLOL], the Hepatotoxicity entry in the data set with Hepatotoxicity [1] (Liver) is listed as “drug-induced liver injury reported”; in the data set on Hepatotoxicity [2] (Liver), “no drug-induced liver injury reported”; with Hepatotoxicity [3] (Liver) it was “no drug-induced liver injury reported”.
Consider `COc1ccc(C(=O)c2ccccc2)c(O)c1` [OXYBENZONE], for which the Hepatotoxicity entry is “no drug-induced liver injury reported” in the data set on Hepatotoxicity [1], “drug-induced liver injury reported” with Hepatotoxicity [2] and “no drug-induced liver injury reported” with Hepatotoxicity [3].
As to `COc1ccc2c3c1O[C@H]1C(=O)CC[C@@]4(O)[C@@H](C2)N(C)CC[C@]314.Cl` [OXYCODONE HYDROCHLORIDE], the Hepatotoxicity result is recorded as “no drug-induced liver injury reported” with Hepatotoxicity [1] (Liver), “drug-induced liver injury reported” in the data set with Hepatotoxicity [2] (Liver) and “no drug-induced liver injury reported” with Hepatotoxicity [3] (Liver).
As for `C[C@]12C/C(=C/O)C(=O)C[C@@H]1CC[C@@H]1[C@@H]2CC[C@@]2(C)[C@H]1CC[C@]2(C)O` [OXYMETHOLONE], the Hepatotoxicity result in the data set on Hepatotoxicity [1] is given as “no drug-induced liver injury reported”; with Hepatotoxicity [2], “no drug-induced liver injury reported”; in the data set with Hepatotoxicity [3] it was “drug-induced liver injury reported”.
`CN1CC[C@]23c4c5ccc(O)c4O[C@H]2C(=O)CC[C@@]3(O)[C@H]1C5` [OXYMORPHONE]: the results for the Hepatotoxicity result with Hepatotoxicity [1], with Hepatotoxicity [2] and with Hepatotoxicity [3] were “no drug-induced liver injury reported”, “no drug-induced liver injury reported” and “drug-induced liver injury reported”, respectively.
Take `CCCCC1C(=O)N(c2ccccc2)N(c2ccc(O)cc2)C1=O` (stereo unspecified) [OXYPHENBUTAZONE ANHYDROUS]: the values for the Hepatotoxicity result in the data set on Hepatotoxicity [1], in the data set on Hepatotoxicity [2] and with Hepatotoxicity [3] were “no drug-induced liver injury reported”, “drug-induced liver injury reported” and “no drug-induced liver injury reported”, respectively.
